Experimental data as given in patent US10674723B2, “1,8-bis(Schiff base)-p-menthane derivatives as well as preparation method and applications thereof” (INSTITUTE OF CHEMICAL INDUSTRY OF FOREST PRODUCTS, CAF, priority 2016, dated 2020).

Test system: annual ryegrass
Experiment: Pre-emergence herbicidal activity by the Petri dish seed germination method
Assay type: in vivo
Conditions: 25° C., 5 days
Experimental: Step 2: accurately weigh 1 mmol of the 1,8-bis(Schiff base)-p-menthane derivative and dissolve it in 0.25 mL DMF, and then add a drop of Tween 80 into it; after the product is fully dissolved, the resulting solution is transferred to a 100 mL volumetric flask and is diluted with distilled water to the mark to obtain a solution having a concentration of 10 mmol/L as the mother liquor. Using the two-fold dilution method, a series of diluted sample solutions with different concentrations are prepared with the mother liquor (the concentrations of DMF and Tween 80 in the diluted solutions should be consistent with those in the mother liquor).
The annual ryegrass seeds are soaked with distilled water for 15 h. Place a piece of filter paper on the bottom of a Petri dish (φ9 cm), add 10 mL of the above sample solution having the corresponding concentration into it, respectively, and add the same amount of the mixture of water, DMF and Tween 80 into such a Petri dish as a blank control. Place 10 grains of seeds into each dish. The dishes are then placed in an incubator and cultured at 25° C. for 5 days. The experimental data are analyzed with DPS software, and the inhibition rate of the 1,8-bis(Schiff base)-p-menthane derivative on the root or stem growth of ryegrass seeds is calculated as follows:
[formula] Where: y is the inhibition rate on the root or stem growth, x2 is the root length or stem length of the control sample, and x1 is the root length or stem length of the sample.
1 mmol of the 1,8-bis(2-hydroxyphenylimine)-p-menthane was accurately weighed and dissolved in 0.25 mL DMF; a drop of Tween 80 was then added into it; after the product was fully dissolved, the resulting solution was transferred to a 100 mL volumetric flask and was diluted with distilled water to the mark to obtain a solution having a concentration of 10 mmol/L as the mother liquor. Using the two-fold dilution method, a series of diluted sample solutions with different concentrations (5 mmol/L, 2.5 mmol/L, 1.25 mmol/L, 0.625 mmol/L and 0.3125 mmol/L; the concentrations of DMF and Tween 80 in the diluted solutions should be consistent with those in the mother liquor) were prepared with the mother liquor.
The annual ryegrass seeds were soaked with distilled water for 15 h. Placed a piece of filter paper on the bottom of a Petri dish (φ 9 cm), added 10 mL of the above sample solution having the corresponding concentration into it, respectively, and added the same amount of the mixture of water, DMF and Tween 80 into such a Petri dish as a blank control. 10 grains of seeds were placed into each of the dishes. The dishes were then placed in an incubator and cultured at 25° C. for 5 days.

Molecule | inhibition rate on the root growth of ryegrass seeds (0.3125 mmol/L solution) [%] | inhibition rate on the stem growth of ryegrass seeds (0.3125 mmol/L solution) [%] | inhibition rate on the root growth of ryegrass seeds (0.625 mmol/L solution) [%] | inhibition rate on the stem growth of ryegrass seeds (0.625 mmol/L solution) [%] | inhibition rate on the root growth of ryegrass seeds (1.25 mmol/L solution) [%] | inhibition rate on the stem growth of ryegrass seeds (1.25 mmol/L solution) [%] | inhibition rate on the root growth of ryegrass seeds (2.5 mmol/L solution) [%] | inhibition rate on the stem growth of ryegrass seeds (2.5 mmol/L solution) [%] | inhibition rate on the root growth of ryegrass seeds (5 mmol/L solution) [%] | inhibition rate on the stem growth of ryegrass seeds (5 mmol/L solution) [%] | inhibition rate on the root growth of ryegrass seeds (10 mmol/L solution) [%] | inhibition rate on the stem growth of ryegrass seeds (10 mmol/L solution) [%]
1,8-bis(4-chlorophenylimine)-p-menthane | 94.1 | 75.2 | 98.0 | 90.3 | 99.3 | 91.4 | 100.0 | 98.2 | 100.0 | 100.0 | 100.0 | 100.0
1,8-bis(2-hydroxyphenylimine)-p-menthane | 14.3 | 6.9 | 41.4 | 38.0 | 62.2 | 61.7 | 83.3 | 79.5 | 100.0 | 100.0 | 100.0 | 100.0
1,8-bis(4-bromophenylimine)-p-menthane | 71.0 | 64.8 | 88.0 | 79.5 | 100.0 | 100.0 | 100.0 | 100.0 | 100.0 | 100.0 | 100.0 | 100.0
1,8-bis(4-methylphenylimine)-p-menthane | 20.3 | 11.1 | 26.3 | 25.9 | 34.2 | 26.8 | 67.0 | 46.2 | 92.8 | 90.4 | 100.0 | 100.0
CC1(N=Cc2c(Cl)cccc2Cl)CCC(C(C)(C)N=Cc2c(Cl)cccc2Cl)CC1 (stereo not drawn) [1,8-bis(2,6-dichlorophenylimine)-p-menthane] | 100.0 | 100.0 | 100.0 | 100.0 | 100.0 | 100.0 | 100.0 | 100.0 | 100.0 | 100.0 | 100.0 | 100.0
1,8-bis(4-methoxyphenylimine)-p-menthane | 12.5 | 30.6 | 15.5 | 32.2 | 54.3 | 48.2 | 88.3 | 73.9 | 100.0 | 100.0 | 100.0 | 100.0
1,8-bis(p-trifluoromethylphenylimine)-p-menthane | 35.4 | 1.1 | 45.5 | 2.4 | 65.8 | 26.0 | 87.5 | 53.7 | 81.7 | 34.8 | 93.8 | 87.9
1,8-bis(2-trifluoromethylphenylimine)-p-menthane | 79.2 | 56.3 | 86.2 | 56.3 | 99.7 | 88.2 | 100.0 | 100.0 | 100.0 | 100.0 | 100.0 | 100.0
1,8-bis(p-dimethylaminophenylimine)-p-menthane | 100.0 | 96.8 | 100.0 | 100.0 | 100.0 | 100.0 | 100.0 | 100.0 | 100.0 | 100.0 | 100.0 | 100.0
1,8-bis(p-methylthiophenylimine)-p-menthane | 37.7 | 20.8 | 46.4 | 28.7 | 35.4 | 27.1 | 54.8 | 28.0 | 50.3 | 21.9 | 67.8 | 36.7
1,8-bis(4-fluorophenylimine)-p-menthane | 14.0 | 4.5 | 35.0 | 21.6 | 58.0 | 49.9 | 78.0 | 53.8 | 85.5 | 82.5 | 94.9 | 94.9
